Data from patent publication US11497752B2, “Compounds and uses thereof” (Foghorn Therapeutics Inc., priority 2018, dated 2022).

How the values were obtained:
BRM = BRM (Homo sapiens, UniProt P51531); assay: ATPase catalytic activity of BRM (ADP-Glo in vitro biochemical assay); details: for BRM Max % Inhibition: Table 6
BRG-1 = BRG-1 (Homo sapiens, UniProt P51532); assay: ATPase catalytic activity of BRG-1 (ADP-Glo in vitro biochemical assay); details: for BRG1 Max % Inhibition: Table 6
Chain of BRG-1 (P51532 whole entry): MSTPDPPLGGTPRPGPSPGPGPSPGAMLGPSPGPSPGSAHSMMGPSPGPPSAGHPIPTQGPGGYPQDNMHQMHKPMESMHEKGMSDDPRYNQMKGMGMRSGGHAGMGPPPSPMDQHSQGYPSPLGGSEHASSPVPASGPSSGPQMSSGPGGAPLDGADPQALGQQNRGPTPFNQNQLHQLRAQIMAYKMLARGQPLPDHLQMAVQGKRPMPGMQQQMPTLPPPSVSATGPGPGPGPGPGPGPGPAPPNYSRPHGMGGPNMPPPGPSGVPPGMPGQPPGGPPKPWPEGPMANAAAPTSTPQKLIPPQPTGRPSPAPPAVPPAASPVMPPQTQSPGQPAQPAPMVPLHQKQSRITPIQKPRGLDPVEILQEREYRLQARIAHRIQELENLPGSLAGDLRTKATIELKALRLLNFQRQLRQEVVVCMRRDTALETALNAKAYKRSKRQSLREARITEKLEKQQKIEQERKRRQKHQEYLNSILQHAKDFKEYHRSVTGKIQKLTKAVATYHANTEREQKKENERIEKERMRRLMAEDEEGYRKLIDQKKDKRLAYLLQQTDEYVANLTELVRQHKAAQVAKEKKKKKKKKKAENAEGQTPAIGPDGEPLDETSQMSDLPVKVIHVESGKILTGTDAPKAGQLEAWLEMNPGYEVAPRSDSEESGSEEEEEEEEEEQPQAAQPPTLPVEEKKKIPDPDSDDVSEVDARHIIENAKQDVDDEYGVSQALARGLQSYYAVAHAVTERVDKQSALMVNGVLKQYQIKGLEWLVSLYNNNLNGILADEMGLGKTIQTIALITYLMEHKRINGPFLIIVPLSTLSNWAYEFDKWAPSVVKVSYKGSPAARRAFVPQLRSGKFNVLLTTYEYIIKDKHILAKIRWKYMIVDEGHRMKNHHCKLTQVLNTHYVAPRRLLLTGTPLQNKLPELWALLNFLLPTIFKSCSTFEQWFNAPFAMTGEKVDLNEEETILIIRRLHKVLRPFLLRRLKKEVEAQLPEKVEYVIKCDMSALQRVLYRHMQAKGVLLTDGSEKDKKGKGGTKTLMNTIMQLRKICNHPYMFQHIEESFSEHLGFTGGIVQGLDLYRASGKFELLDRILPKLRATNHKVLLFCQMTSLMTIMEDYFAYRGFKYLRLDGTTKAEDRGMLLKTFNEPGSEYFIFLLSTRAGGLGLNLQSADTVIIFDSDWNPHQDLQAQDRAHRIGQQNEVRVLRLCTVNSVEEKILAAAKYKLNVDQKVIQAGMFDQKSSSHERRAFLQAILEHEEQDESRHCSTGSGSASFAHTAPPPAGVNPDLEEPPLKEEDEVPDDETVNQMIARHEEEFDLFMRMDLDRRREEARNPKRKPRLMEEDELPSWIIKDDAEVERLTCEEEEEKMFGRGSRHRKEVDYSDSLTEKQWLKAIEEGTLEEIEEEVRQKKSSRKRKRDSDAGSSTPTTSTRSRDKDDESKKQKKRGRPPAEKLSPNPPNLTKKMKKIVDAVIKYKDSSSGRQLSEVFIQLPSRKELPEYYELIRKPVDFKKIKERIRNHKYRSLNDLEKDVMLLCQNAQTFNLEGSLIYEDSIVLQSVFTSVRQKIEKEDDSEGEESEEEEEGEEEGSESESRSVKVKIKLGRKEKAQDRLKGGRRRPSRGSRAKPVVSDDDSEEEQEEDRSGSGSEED

Chain of BRM (P51531 whole entry): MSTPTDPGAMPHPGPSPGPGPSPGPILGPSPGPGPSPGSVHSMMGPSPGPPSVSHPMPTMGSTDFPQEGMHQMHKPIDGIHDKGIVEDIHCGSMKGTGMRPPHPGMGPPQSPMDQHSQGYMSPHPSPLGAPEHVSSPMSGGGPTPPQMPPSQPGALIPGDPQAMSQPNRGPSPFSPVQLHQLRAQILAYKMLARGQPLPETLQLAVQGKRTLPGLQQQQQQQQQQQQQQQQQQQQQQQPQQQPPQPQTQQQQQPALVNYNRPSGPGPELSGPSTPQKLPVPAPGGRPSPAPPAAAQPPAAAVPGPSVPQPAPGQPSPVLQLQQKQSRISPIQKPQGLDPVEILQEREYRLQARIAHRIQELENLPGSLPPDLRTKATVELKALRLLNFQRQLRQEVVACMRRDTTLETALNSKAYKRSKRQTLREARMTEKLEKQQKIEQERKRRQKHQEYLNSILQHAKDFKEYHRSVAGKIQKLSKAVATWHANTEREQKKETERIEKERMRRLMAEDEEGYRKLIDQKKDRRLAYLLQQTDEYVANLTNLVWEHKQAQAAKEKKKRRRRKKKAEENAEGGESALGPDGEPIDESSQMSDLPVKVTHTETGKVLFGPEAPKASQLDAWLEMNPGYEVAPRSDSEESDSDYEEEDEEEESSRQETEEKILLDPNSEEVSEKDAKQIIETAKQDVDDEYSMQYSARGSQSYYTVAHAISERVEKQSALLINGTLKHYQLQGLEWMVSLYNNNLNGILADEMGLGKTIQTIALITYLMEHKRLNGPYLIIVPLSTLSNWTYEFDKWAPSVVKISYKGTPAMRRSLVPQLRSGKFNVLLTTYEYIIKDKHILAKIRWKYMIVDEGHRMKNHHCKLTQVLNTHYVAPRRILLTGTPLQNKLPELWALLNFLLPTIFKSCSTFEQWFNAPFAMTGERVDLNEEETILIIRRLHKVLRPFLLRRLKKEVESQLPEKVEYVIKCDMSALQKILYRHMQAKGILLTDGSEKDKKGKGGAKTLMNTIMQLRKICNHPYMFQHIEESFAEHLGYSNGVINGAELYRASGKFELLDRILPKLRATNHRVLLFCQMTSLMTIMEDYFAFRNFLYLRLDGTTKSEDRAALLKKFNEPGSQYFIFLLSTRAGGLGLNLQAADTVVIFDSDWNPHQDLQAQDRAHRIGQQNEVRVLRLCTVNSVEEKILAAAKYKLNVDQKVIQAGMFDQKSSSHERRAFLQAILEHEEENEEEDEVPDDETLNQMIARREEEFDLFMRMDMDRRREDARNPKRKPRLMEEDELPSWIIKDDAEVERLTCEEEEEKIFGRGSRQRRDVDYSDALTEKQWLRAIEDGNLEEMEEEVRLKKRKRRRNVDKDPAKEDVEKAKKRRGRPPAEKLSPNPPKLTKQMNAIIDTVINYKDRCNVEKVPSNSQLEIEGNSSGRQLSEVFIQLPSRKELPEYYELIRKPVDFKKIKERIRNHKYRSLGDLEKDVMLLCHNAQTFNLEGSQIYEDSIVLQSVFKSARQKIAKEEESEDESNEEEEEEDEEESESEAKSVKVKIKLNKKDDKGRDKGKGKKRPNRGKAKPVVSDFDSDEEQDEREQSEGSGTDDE

| SMILES | IC50 (BRM) [nM] | BRM Max % Inhibition (BRM) [%] | IC50 (BRG-1) [nM] | BRG1 Max % Inhibition (BRG-1) [%] |
| --- | --- | --- | --- | --- |
| CN(C)CCn1ccc2ccc(-c3csc(NC(=O)CNC(=O)c4ccc(N)cc4)n3)cc2c1=O [Compound 167, 4-amino-N-(2-((4-(2-(2-(dimethylamino)ethyl)-1-oxo-1,2-dihydroisoquinolin-7-yl)thiazol-2-yl)amino)-2-oxoethyl)benzamide] | 100 to 1000 | >95 | 100 to 1000 | >95 |
| CN(C)Cc1cc(-c2cccc(-c3csc(NC(=O)CNC(=O)c4ccc(N)cc4)n3)c2)ccn1 [Compound 168, 4-amino-N-(2-((4-(3-(2-((dimethylamino)methyl)pyridin-4-yl)phenyl)thiazol-2-yl)amino)-2-oxoethyl)benzamide] | < 100 | >95 | < 100 | >95 |
| NCC1CCC(c2cccc(-c3csc(NC(=O)CNC(=O)c4ccc(N)cc4)n3)c2)CC1 (stereo not shown) [Compound 169, 4-amino-N-(2-((4-(3-(4-(aminomethyl)cyclohexyl)phenyl)thiazol-2-yl)amino)-2-oxoethyl)benzamide] | 100 to 1000 | >95 | 100 to 1000 | >95 |
| CN(C)CCn1cc(-c2cccc(-c3csc(NC(=O)CNC(=O)c4ccc(N)cc4)n3)c2)ccc1=O [Compound 170, 4-amino-N-(2-((4-(3-(1-(2-(dimethylamino)ethyl)-6-oxo-1,6-dihydropyridin-3-yl)phenyl)thiazol-2-yl)amino)-2-oxoethyl)benzamide] | 100 to 1000 | >95 | 100 to 1000 | >95 |
| NCCn1ccc2ccc(-c3csc(NC(=O)CNC(=O)c4ccc(N)cc4)n3)cc2c1=O [Compound 171, 4-amino-N-(2-((4-(2-(2-aminoethyl)-1-oxo-1,2-dihydroisoquinolin-7-yl)thiazol-2-yl)amino)-2-oxoethyl)benzamide] | 100 to 1000 | >95 | 100 to 1000 | >95 |
| Nc1ccc(C(=O)N[C@@H](CO)C(=O)Nc2nc(-c3cccc(-c4ccncc4)c3)cs2)cc1 [Compound 172, (S)-4-amino-N-(3-hydroxy-1-oxo-1-((4-(3-(pyridin-4-yl)phenyl)thiazol-2-yl)amino)propan-2-yl)benzamide] | 100 to 1000 | >95 | 100 to 1000 | >90 |
| Nc1ccc(C(=O)NCC(=O)Nc2nc(C3CCCN(c4cccnc4)C3)cs2)cc1 (stereo not shown) [Compound 173, 4-amino-N-(2-oxo-2-((4-(1-(pyridin-3-yl)piperidin-3-yl)thiazol-2-yl)amino)ethyl)benzamide] | 100 to 1000 | >90 | 100 to 1000 | >90 |
| NC[C@H]1CC[C@H](c2cccc(-c3csc(NC(=O)CNC(=O)c4ccc(N)cc4)n3)c2)CC1 [Compound 174, 4-amino-N-(2-((4-(3-((1r,4r)-4-(aminomethyl)cyclohexyl)phenyl)thiazol-2-yl)amino)-2-oxoethyl)benzamide] | 100 to 1000 | >80 | 100 to 1000 | >80 |

More lines, now with the values ahead:

| IC50 (BRM) [nM] | BRM Max % Inhibition (BRM) [%] | IC50 (BRG-1) [nM] | BRG1 Max % Inhibition (BRG-1) [%] | SMILES |
| --- | --- | --- | --- | --- |
| 100 to 1000 | >90 | 100 to 1000 | >80 | NC[C@H]1CC[C@@H](c2cccc(-c3csc(NC(=O)CNC(=O)c4ccc(N)cc4)n3)c2)CC1 [Compound 175, 4-amino-N-(2-((4-(3-((1s,4s)-4-(aminomethyl)cyclohexyl)phenyl)thiazol-2-yl)amino)-2-oxoethyl)benzamide] |
| 100 to 1000 | >90 | 100 to 1000 | >80 | Nc1ccc(C(=O)NCC(=O)Nc2nc(-c3cccc(-c4cnn(CC(=O)O)c4)c3)cs2)cc1 [Compound 176, 2-(4-(3-(2-(2-(4-aminobenzamido)acetamido)thiazol-4-yl)phenyl)-1H-pyrazol-1-yl)acetic acid] |
| < 100 | >95 | < 100 | >95 | COC(=O)Cc1cc(-c2cccc(-c3csc(NC(=O)CNC(=O)c4ccc(N)cc4)n3)c2)ccn1 [Compound 177, methyl 2-(4-(3-(2-(2-(4-aminobenzamido)acetamido)thiazol-4-yl)phenyl)pyridin-2-yl)acetate] |
| < 100 | >95 | < 100 | >95 | COCC[C@H](NC(=O)c1ccc(N)cc1)C(=O)Nc1nc(-c2cccc(-c3ccncc3)c2)cs1 [Compound 178, (S)-4-amino-N-(4-methoxy-1-oxo-1-((4-(3-(pyridin-4-yl)phenyl)thiazol-2-yl)amino)butan-2-yl)benzamide] |
| 100 to 1000 | >90 | 100 to 1000 | >95 | Nc1ccc(C(=O)NCC(=O)Nc2nc(-c3cccc(N4CCOCC4)c3)cs2)cc1 [Compound 179, 4-amino-N-(2-((4-(3-morpholinophenyl)thiazol-2-yl)amino)-2-oxoethyl)benzamide] |
| 100 to 1000 | >90 | 100 to 1000 | >95 | COC(=O)Cn1cc(-c2cccc(-c3csc(NC(=O)CNC(=O)c4ccc(N)cc4)n3)c2)cn1 [Compound 180, methyl 2-(4-(3-(2-(2-(4-aminobenzamido)acetamido)thiazol-4-yl)phenyl)-1H-pyrazol-1-yl)acetate] |
| < 100 | >95 | < 100 | >95 | COC(=O)c1cc(-c2cccc(-c3csc(NC(=O)CNC(=O)c4ccc(N)cc4)n3)c2)ccn1 [Compound 181, methyl 4-(3-(2-(2-(4-aminobenzamido)acetamido)thiazol-4-yl)phenyl)picolinate] |
| < 100 | >95 | 100 to 1000 | >90 | COC(=O)C(C)(C)c1cc(-c2cccc(-c3csc(NC(=O)CNC(=O)c4ccc(N)cc4)n3)c2)ccn1 [Compound 182, methyl 2-(4-(3-(2-(2-(4-aminobenzamido)acetamido)thiazol-4-yl)phenyl)pyridin-2-yl)-2-methylpropanoate] |
| < 100 | >95 | < 100 | >95 | CC(=O)N(C)c1cc(-c2cccc(-c3csc(NC(=O)CNC(=O)c4ccc(N)cc4)n3)c2)ccn1 [Compound 183, 4-amino-N-(2-((4-(3-(2-(N-methylacetamido)pyridin-4-yl)phenyl)thiazol-2-yl)amino)-2-oxoethyl)benzamide] |
| < 100 | >80 | < 100 | >70 | Nc1ccc(C(=O)NCC(=O)Nc2nc(-c3cccc(-c4ccncc4)c3)cs2)nc1 [Compound 184, 5-amino-N-(2-oxo-2-((4-(3-(pyridin-4-yl)phenyl)thiazol-2-yl)amino)ethyl)picolinamide] |
| 100 to 1000 | >80 | 100 to 1000 | >70 | Nc1ccc(C(=O)NCC(=O)Nc2nc(-c3cccc(N4CCS(=O)(=O)CC4)c3)cs2)cc1 [Compound 185, 4-amino-N-(2-((4-(3-(1,1-dioxidothiomorpholino)phenyl)thiazol-2-yl)amino)-2-oxoethyl)benzamide] |
